# Active and inactive are the calls of the source.
# Assays:
# [1] = target: E3 ubiquitin-protein ligase Mdm2 (Homo sapiens, UniProt Q00987); experiment: MDM2-luc reporter signal enhancers, multi-concentration potency testing, MDM2 ubiquitin-protein ligase inhibitor program, whole-cell format, luminescence detection, 384-well microplate (AID 1394); format: functional;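 note: MDM2 E3 inhibitors raise luminescence so EC50 is for signal enhancement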
# [2] = Luminescence Cell-Based Dose Confirmation HTS to Identify Inhibitors of Platelet Dense Granule Release. [Related pubchem assays: 1663 (Primary HTS), 1678 (Summary of Project)]; format: functional
# [3] = target: T1, High affinity choline transporter 1 (Homo sapiens, UniProt Q9GZV3); experiment: human choline transporter blockers, potency – cell-based, 5-point CRC, membrane potential dye, dose response (AID 504840); format: functional
# T1 sequence (Q9GZV3 whole entry): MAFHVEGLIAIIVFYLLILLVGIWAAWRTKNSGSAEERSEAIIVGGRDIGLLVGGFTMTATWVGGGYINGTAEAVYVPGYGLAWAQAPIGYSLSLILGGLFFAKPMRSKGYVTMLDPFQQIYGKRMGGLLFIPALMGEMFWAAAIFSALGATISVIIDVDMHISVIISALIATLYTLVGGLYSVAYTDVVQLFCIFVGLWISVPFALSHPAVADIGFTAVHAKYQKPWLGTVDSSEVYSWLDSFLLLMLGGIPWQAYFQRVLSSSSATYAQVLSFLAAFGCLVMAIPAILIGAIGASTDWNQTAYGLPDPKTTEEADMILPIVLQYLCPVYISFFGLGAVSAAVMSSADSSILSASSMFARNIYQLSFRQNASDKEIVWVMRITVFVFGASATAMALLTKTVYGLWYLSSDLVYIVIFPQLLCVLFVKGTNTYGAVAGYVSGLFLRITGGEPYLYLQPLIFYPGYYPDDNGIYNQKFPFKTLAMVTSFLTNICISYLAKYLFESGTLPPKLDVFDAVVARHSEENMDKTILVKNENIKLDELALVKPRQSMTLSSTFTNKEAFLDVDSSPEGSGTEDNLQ
# [4] = Luminescent dose response cell-based high throughput screening assay for inhibitors of the Janus kinase 2 mutant JAK2V617F. [Related pubchem assays: 1446 (Primary screen.), 1521 (Confirmation assay.), 1486 (Counter screen.)]; format: functional
# [5] = target: Luciferin 4-monooxygenase (Photinus pyralis, UniProt P08659); experiment: inhibition of purified Photinus pyralis luciferase – biochemical, luminescence, dose response (AID 1891)
# Sequence of Luciferin 4-monooxygenase (P08659 whole entry): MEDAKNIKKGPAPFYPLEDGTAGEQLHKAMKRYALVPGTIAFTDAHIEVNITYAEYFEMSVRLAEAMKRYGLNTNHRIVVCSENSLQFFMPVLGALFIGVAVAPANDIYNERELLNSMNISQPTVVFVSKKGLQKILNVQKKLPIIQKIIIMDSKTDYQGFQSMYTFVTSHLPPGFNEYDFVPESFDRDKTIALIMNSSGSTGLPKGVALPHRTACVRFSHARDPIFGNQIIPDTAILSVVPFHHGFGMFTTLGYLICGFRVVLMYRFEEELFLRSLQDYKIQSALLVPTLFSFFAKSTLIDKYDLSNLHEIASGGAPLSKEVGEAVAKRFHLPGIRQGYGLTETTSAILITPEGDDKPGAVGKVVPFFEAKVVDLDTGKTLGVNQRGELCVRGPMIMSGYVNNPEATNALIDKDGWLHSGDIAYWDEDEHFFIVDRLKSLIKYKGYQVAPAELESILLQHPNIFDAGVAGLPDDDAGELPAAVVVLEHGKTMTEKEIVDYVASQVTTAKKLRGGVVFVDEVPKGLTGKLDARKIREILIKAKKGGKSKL
# [6] = target: T2, Rac GTPase-activating protein 1 (Homo sapiens, UniProt Q9H0H5); experiment: blockers of MgcRacGAP-driven Rac1 GTP hydrolysis – biochemical, ADP Hunter fluorescence, primary and confirmatory, confirmation (AID 624330); format: functional
# T2 sequence (Q9H0H5 whole entry): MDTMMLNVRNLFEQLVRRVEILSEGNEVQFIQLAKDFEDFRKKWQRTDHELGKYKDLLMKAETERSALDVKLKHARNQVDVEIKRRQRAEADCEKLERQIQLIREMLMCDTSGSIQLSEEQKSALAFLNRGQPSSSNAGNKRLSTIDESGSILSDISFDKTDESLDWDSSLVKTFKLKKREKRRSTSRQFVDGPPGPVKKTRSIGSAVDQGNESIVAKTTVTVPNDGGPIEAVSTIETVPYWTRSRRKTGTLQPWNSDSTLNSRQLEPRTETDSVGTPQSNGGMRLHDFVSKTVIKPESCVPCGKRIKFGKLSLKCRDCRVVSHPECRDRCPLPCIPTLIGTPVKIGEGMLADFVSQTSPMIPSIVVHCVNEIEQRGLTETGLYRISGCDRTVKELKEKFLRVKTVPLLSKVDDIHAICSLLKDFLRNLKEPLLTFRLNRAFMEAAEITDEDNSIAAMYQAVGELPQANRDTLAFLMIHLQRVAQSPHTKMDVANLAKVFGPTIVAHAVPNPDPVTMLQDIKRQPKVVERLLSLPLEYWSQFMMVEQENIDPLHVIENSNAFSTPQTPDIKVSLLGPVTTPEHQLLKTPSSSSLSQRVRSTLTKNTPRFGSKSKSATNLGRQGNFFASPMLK
# [7] = target: DNA (cytosine-5)-methyltransferase 1 (Homo sapiens, UniProt P26358); experiment: inhibition of DNA methylation by DNMT1 – biochemical, fluorescent molecular beacon, confirmation (AID 602386); format: functional
# Sequence of DNA (cytosine-5)-methyltransferase 1 (P26358 whole entry): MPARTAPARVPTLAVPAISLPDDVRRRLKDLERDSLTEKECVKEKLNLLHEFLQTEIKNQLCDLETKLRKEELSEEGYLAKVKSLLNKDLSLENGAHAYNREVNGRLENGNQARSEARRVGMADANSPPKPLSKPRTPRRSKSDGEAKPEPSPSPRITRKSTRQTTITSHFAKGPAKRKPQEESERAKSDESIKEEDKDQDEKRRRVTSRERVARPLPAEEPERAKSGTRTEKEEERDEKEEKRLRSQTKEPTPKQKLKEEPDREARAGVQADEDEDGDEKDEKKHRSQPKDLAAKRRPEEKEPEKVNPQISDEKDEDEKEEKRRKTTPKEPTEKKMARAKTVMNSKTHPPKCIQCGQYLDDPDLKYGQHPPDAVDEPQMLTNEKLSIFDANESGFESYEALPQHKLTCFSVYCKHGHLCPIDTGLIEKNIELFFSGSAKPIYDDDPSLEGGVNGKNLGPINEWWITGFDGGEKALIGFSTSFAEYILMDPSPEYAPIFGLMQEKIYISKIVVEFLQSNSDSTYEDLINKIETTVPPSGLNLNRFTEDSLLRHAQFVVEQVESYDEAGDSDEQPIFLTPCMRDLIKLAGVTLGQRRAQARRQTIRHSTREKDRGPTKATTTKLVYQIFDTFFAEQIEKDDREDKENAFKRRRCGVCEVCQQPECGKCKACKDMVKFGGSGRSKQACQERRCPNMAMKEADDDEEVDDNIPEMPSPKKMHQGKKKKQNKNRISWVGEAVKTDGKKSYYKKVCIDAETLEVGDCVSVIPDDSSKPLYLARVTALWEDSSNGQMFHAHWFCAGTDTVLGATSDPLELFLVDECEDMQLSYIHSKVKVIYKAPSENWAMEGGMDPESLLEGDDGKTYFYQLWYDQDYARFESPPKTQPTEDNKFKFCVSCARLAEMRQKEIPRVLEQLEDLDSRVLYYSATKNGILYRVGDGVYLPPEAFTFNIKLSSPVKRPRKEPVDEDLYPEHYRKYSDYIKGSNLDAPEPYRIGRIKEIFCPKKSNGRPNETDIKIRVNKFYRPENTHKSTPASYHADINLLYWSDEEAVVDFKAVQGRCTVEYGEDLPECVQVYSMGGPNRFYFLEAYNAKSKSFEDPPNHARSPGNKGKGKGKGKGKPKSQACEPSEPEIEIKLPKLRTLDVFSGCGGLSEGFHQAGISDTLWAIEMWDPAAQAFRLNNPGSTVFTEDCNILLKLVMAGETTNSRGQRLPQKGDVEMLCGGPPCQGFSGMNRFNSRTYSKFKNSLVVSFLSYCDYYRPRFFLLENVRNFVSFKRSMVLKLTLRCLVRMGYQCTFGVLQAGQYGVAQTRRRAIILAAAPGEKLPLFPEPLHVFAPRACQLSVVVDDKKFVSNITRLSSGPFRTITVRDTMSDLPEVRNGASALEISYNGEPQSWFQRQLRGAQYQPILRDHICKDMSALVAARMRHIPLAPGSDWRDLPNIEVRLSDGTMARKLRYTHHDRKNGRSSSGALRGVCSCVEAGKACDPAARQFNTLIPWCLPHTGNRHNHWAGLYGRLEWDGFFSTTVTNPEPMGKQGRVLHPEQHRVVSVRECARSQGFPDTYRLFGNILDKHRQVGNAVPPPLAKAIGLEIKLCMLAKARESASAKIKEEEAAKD
# [8] = target: Bifunctional protein GlmU (Mycobacterium tuberculosis, UniProt P9WMN3); experiment: Inhibitors of Mycobacterial Glucosamine-1-phosphate acetyl transferase (GlmU). Secondary screen.; parameters: species or system Mycobacterium tuberculosis H37Rv
# Sequence of Bifunctional protein GlmU (P9WMN3 whole entry): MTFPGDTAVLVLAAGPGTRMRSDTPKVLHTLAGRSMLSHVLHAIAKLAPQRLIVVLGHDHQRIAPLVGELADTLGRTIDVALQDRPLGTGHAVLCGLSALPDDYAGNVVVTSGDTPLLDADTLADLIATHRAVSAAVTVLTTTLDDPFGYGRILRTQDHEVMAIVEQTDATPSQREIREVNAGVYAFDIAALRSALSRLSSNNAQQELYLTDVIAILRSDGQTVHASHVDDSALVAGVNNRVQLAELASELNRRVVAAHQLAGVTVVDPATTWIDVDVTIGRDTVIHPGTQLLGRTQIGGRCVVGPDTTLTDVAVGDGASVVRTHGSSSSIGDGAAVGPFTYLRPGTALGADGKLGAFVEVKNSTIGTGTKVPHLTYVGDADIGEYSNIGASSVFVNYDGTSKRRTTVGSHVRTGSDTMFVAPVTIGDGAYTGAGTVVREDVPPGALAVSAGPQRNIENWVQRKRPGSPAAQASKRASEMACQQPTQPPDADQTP
# [9] = target: Induced myeloid leukemia cell differentiation protein Mcl-1 (Homo sapiens, UniProt Q07820); format: functional
# [10] = target: 26S proteasome non-ATPase regulatory subunit 14 (Homo sapiens, UniProt O00487); experiment: inhibition of proteasome subunit RPN11 – biochemical, fluorescence polarization, uHTS hits, confirmation (AID 602368); format: functional
# [11] = target: Prothrombin (Bos taurus, UniProt P00735); experiment: thrombin protease inhibitors – biochemical, fluorescence polarization, uHTS hits, dose response (AID 602369); format: functional
# [12] = target: 72 kDa type IV collagenase (Homo sapiens, UniProt P08253); experiment: Dose Response validation of uHTS RPN11 inhibitor hits using a MMP-2 Fluorescence assay.; format: functional
# [13] = target: T3, Histone-lysine N-methyltransferase NSD2 (Homo sapiens, UniProt O96028); format: biochemical
# T3 sequence (O96028 whole entry): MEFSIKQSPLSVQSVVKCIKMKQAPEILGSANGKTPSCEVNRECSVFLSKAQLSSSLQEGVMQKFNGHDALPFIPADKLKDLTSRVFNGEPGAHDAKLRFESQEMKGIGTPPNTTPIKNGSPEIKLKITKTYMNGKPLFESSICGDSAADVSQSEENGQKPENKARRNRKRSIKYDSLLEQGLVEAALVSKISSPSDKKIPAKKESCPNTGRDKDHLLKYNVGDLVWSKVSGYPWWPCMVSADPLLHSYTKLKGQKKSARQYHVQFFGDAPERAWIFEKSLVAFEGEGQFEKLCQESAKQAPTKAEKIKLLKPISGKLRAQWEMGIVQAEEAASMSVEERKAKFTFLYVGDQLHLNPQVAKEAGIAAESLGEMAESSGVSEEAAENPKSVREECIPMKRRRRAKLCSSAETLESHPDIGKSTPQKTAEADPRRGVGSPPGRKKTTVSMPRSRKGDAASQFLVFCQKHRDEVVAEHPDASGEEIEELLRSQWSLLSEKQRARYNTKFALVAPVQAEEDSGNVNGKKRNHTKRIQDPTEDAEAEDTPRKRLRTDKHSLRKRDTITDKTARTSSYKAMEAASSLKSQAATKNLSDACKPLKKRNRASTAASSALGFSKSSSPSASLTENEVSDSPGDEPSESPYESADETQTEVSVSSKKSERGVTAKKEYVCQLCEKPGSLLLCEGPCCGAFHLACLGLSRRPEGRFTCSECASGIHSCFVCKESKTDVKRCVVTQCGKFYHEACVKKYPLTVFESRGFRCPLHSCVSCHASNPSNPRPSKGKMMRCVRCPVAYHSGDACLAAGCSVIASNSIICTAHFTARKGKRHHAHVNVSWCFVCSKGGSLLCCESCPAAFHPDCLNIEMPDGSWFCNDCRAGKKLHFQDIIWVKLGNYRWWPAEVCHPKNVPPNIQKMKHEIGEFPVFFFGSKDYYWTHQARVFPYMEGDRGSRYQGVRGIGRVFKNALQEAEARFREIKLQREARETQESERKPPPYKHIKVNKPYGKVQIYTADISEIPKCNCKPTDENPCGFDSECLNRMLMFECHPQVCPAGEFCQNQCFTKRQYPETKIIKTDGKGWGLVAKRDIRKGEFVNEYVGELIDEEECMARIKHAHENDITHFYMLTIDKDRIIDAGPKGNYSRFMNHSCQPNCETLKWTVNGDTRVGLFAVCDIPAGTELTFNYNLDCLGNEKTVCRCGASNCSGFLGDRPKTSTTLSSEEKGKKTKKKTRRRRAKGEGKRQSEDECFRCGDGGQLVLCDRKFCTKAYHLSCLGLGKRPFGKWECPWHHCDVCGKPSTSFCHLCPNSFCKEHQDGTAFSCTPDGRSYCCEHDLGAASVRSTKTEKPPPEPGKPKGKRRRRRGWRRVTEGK
# [14] = target: T4, Bcl-2-related protein A1 (Mus musculus, UniProt Q07440); experiment: small-molecule antagonists of Bfl-1/BH3 interaction – biochemical, TR-FRET, mouse Bfl-1, confirmation (AID 621);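 note: TR-FRET binding of GST-Bfl-1 to FITC-labelled Bid peptide via terbium antibody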
# T4 sequence (Q07440 whole entry): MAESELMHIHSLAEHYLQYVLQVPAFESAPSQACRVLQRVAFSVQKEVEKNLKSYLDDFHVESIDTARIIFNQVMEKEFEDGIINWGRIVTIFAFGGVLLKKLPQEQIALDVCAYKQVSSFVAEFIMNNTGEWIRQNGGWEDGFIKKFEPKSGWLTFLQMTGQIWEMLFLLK
# [15] = target: T4, Bcl-2-related protein A1; experiment: Bfl-1 binding inhibitors, SAR follow-up, biochemical, fluorescence polarization (AID 1070)
# [16] = test system: Vero; experiment: mammalian cell viability reduction – secondary assay, cytotoxicity control for West Nile virus antiviral project, dose response (AID 1650); format: functional; conditions: Chlorocebus sabaeus
# [17] = target: NADPH oxidase 1 (Homo sapiens, UniProt Q9Y5S8); experiment: Late-stage luminescence-based cell-based dose response assay to identify inhibitors of NADPH oxidase 1 (NOX1): Purchased analogs 2.; format: functional
# Sequence of NADPH oxidase 1 (Q9Y5S8 whole entry): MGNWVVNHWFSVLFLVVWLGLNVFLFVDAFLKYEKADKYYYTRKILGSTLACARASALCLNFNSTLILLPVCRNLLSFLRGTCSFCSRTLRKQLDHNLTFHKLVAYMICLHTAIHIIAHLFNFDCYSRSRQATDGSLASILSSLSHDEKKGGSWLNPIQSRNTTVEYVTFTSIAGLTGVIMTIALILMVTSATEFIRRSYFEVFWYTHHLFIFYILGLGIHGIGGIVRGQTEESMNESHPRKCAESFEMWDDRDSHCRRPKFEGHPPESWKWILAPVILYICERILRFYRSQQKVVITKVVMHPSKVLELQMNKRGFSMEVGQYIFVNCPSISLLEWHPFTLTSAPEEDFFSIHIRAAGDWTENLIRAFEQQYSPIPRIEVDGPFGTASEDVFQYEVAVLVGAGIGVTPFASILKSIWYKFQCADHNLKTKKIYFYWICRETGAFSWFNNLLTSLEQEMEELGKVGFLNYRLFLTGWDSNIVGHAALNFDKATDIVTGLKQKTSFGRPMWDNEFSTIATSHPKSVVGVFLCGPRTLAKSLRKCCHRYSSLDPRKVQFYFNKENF
# [18] = target: Diphosphomevalonate decarboxylase (Streptococcus pneumoniae serotype 2 (strain D39 / NCTC 7466), UniProt Q9FD53); experiment: diphosphomevalonate decarboxylase inhibitor confirmation – biochemical, cuvette format, coupled NADH fluorescence (AID 1028); format: functional
# Sequence of Diphosphomevalonate decarboxylase (Q9FD53 whole entry): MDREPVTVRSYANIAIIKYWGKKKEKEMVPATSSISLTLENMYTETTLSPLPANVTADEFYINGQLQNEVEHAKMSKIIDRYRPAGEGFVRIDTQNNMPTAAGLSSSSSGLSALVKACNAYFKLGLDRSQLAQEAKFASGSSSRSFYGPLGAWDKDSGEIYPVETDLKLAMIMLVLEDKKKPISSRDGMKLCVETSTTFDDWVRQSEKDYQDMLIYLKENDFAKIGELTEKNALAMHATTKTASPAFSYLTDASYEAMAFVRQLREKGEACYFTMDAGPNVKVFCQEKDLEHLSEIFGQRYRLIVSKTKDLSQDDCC
# [19] = target: Sphingosine 1-phosphate receptor 2 (Homo sapiens, UniProt O95136); experiment: Dose Response Cell Based Assay for Agonists of the S1P2 Receptor. [Related pubchem assays: 729, 736, 843 ]; format: functional
# Sequence of Sphingosine 1-phosphate receptor 2 (O95136 whole entry, the tested form may be a part): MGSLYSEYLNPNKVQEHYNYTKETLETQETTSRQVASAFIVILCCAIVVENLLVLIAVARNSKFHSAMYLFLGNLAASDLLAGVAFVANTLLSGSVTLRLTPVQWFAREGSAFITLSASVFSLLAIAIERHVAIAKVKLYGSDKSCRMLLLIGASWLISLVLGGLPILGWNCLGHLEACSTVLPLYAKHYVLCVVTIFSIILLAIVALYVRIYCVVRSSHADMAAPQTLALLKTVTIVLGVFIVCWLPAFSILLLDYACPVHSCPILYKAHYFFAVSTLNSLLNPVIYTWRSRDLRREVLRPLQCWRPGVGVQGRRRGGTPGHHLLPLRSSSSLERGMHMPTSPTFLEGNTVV
# [20] = target: T5, RNA-binding protein pos-1 (Caenorhabditis elegans, UniProt G5EF15); experiment: disruptors of C. elegans POS-1 RNA interaction – biochemical, fluorescence polarization, dose response (AID 1964);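 note: purified POS-1 fused to maltose binding protein made in E. coli; potency of compounds blocking POS-1 binding to fluorescent RNA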
# T5 sequence (G5EF15 whole entry): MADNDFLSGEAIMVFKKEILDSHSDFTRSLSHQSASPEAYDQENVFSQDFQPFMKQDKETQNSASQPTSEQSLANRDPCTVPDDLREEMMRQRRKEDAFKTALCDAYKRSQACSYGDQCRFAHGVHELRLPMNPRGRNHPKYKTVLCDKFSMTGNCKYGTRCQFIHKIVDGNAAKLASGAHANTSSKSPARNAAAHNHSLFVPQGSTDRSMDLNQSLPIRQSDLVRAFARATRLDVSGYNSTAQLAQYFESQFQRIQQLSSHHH
# [21] = target: Photoreceptor-specific nuclear receptor (Homo sapiens, UniProt Q9Y5X4); experiment: ligands suppressing NR2E3 nuclear receptor activity – biochemical, TR-FRET, dose response (AID 463256); format: functional
# Sequence of Photoreceptor-specific nuclear receptor (Q9Y5X4 whole entry): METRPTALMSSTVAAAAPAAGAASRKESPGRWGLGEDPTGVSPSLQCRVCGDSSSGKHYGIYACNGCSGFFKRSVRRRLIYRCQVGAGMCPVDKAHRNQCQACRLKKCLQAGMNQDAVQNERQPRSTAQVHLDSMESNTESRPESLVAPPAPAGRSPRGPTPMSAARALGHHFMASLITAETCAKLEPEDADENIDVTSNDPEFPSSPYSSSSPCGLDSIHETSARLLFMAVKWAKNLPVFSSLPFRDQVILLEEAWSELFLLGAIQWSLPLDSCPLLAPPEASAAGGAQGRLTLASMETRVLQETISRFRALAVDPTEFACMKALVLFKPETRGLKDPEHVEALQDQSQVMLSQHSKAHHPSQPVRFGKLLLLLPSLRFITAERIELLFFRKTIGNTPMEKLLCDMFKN
# [22] = target: Peroxisome proliferator-activated receptor gamma/Nuclear receptor corepressor 2 (Homo sapiens, UniProt P37231+Q9Y618); experiment: Counterscreen for NR2E3 inverse agonists: TR-FRET-based biochemical high throughput dose response assay to identify inverse agonists of the interaction between peroxisome proliferator-activated receptor gamma (PPARg) and nuclear receptor co-repressor 2 (NCOR2).; format: functional
# [23] = target: Dual specificity tyrosine-phosphorylation-regulated kinase 1A (Rattus norvegicus, UniProt Q63470); format: biochemical, Homo sapiens
# [24] = target: T6, Zinc finger protein mex-5 (Caenorhabditis elegans, UniProt Q9XUB2); experiment: potency of MEX-5 RNA-binding blockers – biochemical, C. elegans, fluorescence polarization, dose response (AID 1960)
# T6 sequence (Q9XUB2 whole entry): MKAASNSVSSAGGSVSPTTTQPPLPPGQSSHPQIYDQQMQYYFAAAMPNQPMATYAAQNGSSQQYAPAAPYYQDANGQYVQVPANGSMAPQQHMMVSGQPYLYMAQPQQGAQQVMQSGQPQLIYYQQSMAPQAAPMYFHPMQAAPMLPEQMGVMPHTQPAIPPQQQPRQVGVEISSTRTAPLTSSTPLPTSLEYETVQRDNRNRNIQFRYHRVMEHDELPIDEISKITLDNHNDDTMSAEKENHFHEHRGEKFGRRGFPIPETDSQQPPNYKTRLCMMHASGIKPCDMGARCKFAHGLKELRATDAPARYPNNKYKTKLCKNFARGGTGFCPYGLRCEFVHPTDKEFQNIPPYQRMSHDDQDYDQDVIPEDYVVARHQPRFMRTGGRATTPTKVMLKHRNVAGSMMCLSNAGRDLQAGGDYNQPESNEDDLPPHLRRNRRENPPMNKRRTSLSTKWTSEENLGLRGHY
# [25] = M. tuberculosis growth inhibition, HTS (AID 449762); format: functional
# Sequence of E3 ubiquitin-protein ligase Mdm2 (Q00987 whole entry): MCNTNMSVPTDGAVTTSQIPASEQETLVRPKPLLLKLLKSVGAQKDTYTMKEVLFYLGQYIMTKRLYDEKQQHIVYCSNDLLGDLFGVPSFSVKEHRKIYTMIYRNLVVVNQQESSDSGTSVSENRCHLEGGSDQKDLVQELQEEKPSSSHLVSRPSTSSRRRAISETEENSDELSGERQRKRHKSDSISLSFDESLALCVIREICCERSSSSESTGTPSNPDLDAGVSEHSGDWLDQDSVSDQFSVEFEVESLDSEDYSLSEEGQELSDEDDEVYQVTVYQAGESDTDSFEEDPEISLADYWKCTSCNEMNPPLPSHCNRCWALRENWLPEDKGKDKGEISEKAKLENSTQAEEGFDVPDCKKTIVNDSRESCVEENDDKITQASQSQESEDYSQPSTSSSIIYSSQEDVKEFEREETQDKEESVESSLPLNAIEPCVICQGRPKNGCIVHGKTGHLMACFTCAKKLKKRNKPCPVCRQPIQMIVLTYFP
structure (smiles),measurement,setting,value
Cc1cc2cc(C)c(SCC(=O)NCc3ccco3)nc2cc1C,EC50,[1],489 µM (not active)
COc1cc2c(cc1OC)-c1cc(N3CCCc4ccccc43)nc(=O)n1CC2,EC50,[2],3.35 µM (active)
same,IC50,[3],13.2 µM (active)
same,IC50,[4],> 40 µM (not active)
same,EC50,[5],> 112 µM (not active)
Cc1ccc(N2C(=O)NC(=O)/C(=C/c3ccoc3)C2=O)cc1,IC50,[6],55.7 µM (active)
same,IC50,[7],4 µM (active)
same,IC50,[8],66.5 µM (active)
same,IC50,[9],4.84 µM (active)
same,IC50,[10],6.76 µM (active)
same,IC50,[11],84.7 µM (active)
same,IC50,[12],3.45 µM (active)
same,AC50,[13],7.88 µM (active)
Clc1ccc(-n2nnc(-c3cnc4ccccc4c3)n2)cc1Cl,IC50,[14],> 100 µM (not active)
same,IC50,[15],> 100 µM (not active)
CC(C(=O)N(C)C1CCS(=O)(=O)C1)N1C(=O)/C(=C/c2cccs2)SC1=S (stereo not given),CC50,[16],32.1 µM (active)
O=C1Nc2cc(F)ccc2/C1=N/Nc1c(F)c(F)nc(F)c1F,IC50,[17],> 17 µM (not active)
CCCN(CCC)C(=O)c1ccc(-n2sc3ccccc3c2=O)cc1,IC50,[18],7.64 µM (active)
O=C1SC(c2ccccc2)=N/C1=C/c1ccco1,EC50,[19],> 50 µM (not active)
N=C1NC(=O)/C(=C/c2ccc(-c3ccc(S(N)(=O)=O)cc3)o2)S1,EC50,[20],31.9 µM (active)
same,IC50,[21],14.2 µM (not active)
same,IC50,[22],> 39.8 µM (not active)
same,AC50,[23],1.97 µM (active)
same,EC50,[24],15 µM (active)
C/C(=C\C(=O)c1ccccc1)Nc1ccc(Cl)c(Br)c1,IC50,[25],> 100 µM (active)

# Source: ChEMBL document CHEMBL1201862, “PubChem BioAssay data set” (2004)
